From US12416002B2, “Analysis system for orthogonal access to and tagging of biomolecules in cellular compartments” (ILLUMINA, INC., priority 2016, dated 2025) come the findings set out here.

One test relates to nuclei of K562 cells. The test is described as follows: Reverse transcription/quantitative PCR of cDNA synthesis from nuclear mRNA (Example 9, Table 4). The test is classed as cell-based, human. As to the method:
Pitstop-2 treatment increases RNA output by improving cDNA synthesis from nuclear mRNA. K562 cells were lysed with 0.1% NP40. The nuclei and cytoplasm were separated and the nuclei were washed twice, then a reverse transcription/quantitative PCR protocol was performed (ThermoFisher Maxima HT RT kit, Kapa qPCR kit, RPLPO PCR primer) with (a) no additive, (b) 0.1% SDS, or (c) 30 μM Pitstop-2. The deltaCt between no reverse transcription and reverse transcription was used as the metric to report relative cDNA synthesis efficiency. Pitstop-2 treatment boosted cDNA synthesis from nuclei 4-5 fold over untreated nuclei (Table 4).

Test [1] concerns Isolated nuclei. The test is described as follows: qPCR (Cq) of library yield from nuclei transposed with Nextera Tn5 in presence of Pitstop-2 (Example 4, Table 1A). The test is classed as cell-based, human. To be noted: for Cq-Pitstop-2: 50,000 nuclei, 25 cy qPCR. The procedure: Using a standard cell culture protocol, 1×10^6 K562 cells (human lymphoma cell line) were collected from tissue culture flasks for tagmentation reaction. All cell pelleting/centrifugation steps were performed at 300×g for 3 min at 4° C. Freshly isolated cells were centrifuged and re-suspended in ice cold PBS (phosphate-buffered saline). The cells were pelleted again and incubated on ice while being suspended in 200 μL ice cold cell lysis buffer (Tris/NaCl/octylphenoxypolyethoxyethanol (IGEPAL CA-630 detergent)) for 5 min. Following this, nuclei were spun down for 3 min at 300×g, washed once with 200 of lysis buffer, and pelleted nuclei were transposed with Nextera Tn5 Transposase (TDE1) for 30 min at 55° C. in 1× Tagment DNA buffer (PN:15027866), supplemented with ([…]) or ([…]). Nuclei from each sample were pelleted and most of the supernatant was carefully removed.
(§1) One Cq value roughly corresponds to two fold difference in DNA Input. […]

Test [2] relates to Isolated nuclei. The test is described as follows: qPCR (Cq) of library yield, varying Pitstop-2 with Tn5 and TsTn5 transposases (Table 1B). It counts as cell-based, human.
Description: as §1
Additional experiments were run using varying concentrations of Pitstop-2 and the Tn5 and TsTn5 transposases.

Test [3] concerns nuclei. The test is described as follows: Flow cytometry of bead capture of FAM-labeled transposed nuclear material (Table 2). The test is classed as cell-based.
Another test deals with unpurified nuclei. The test is described as follows: Yield of ATAC-seq library from unpurified nuclei (Example 8, Table 3). The test is classed as cell-based. The following applies: for Yield (nM) 150-1000 bp: 3% DMSO. The procedure: The concentration of each library was determined on the BioAnalyzer between the library range of 150-1000 bps plotted for each Pitstop-2 concentration (FIG. 7A). Additional experiments run at varying Pitstop-2 concentrations (5, 10, 30, 50, 100, and 200 μM) produced enhanced library yield over libraries produced in the absence of Pitstop-2 as shown by spectrophotometric analysis (Table 3).

The test system of test [4] is Isolated nuclei of K562 cells. The test is described as follows: Visualization of FAM-labeled transposome access to nuclei (Example 3, FIG. 3). It counts as cell-based, human. The following applies: Pitstop-2 10 μM, 30 μM, 60 μM vs 2% DMSO control. As to the method: Using a standard cell culture protocol, 1×10^6 K562 cells (human lymphoma cell line) were collected from tissue culture flasks for tagmentation reaction. All cell pelleting/centrifugation steps were performed at 300×g for 3 min at 4° C. Freshly isolated cells were centrifuged and re-suspended in ice cold PBS (phosphate-buffered saline). The cells were pelleted again and incubated on ice while being suspended in 200 μL ice cold cell lysis buffer (Tris/NaCl/octylphenoxypolyethoxyethanol (IGEPAL CA-630 detergent)) for 5 min. Following this, nuclei were spun down for 3 min at 300×g, washed once with 200 of lysis buffer, and pelleted nuclei were transposed with Nextera Tn5 Transposase (TDE1) for 30 min at 55° C. in 1× Tagment DNA buffer (PN:15027866), supplemented with (a) Pitstop-2 in DMSO to yield 30 μM final Pitstop-2 concentration (test nuclei) or (b) 2% DMSO (control nuclei). Nuclei from each sample were pelleted and most of the supernatant was carefully removed.
The method of Example 1 was used to import FAM-labeled transposome complexes into nuclear compartments. Nuclei were isolated and treated as described in Example 1 using Nextera Tn5 transposase complexed with transposon sequence labeled during oligonucleotide synthesis at the 5′-end with FAM (6-FAM, Integrated DNA Technologies), and using the 2% DMSO control, and varying concentrations of Pitstop-2 (10 μM, 30 μM, and 60 μM).

The subject of test [5] is K562 (human lymphoma cell line) nuclear content. The test is described as follows: Sequencing of transposition (ATAC-seq) libraries from K562 nuclear content (Example 5, FIG. 4). It counts as cell-based. From the text:
DNA libraries were generated from K562 (human lymphoma cell line) nuclear content using methods as described in the preceding examples. […] As shown in FIG. 4A for the ATAC-seq profile over a portion of Chr 12, the libraries had targeted predominantly intergenic regions at all Pitstop-2 concentrations.

The subject of test [6] is nuclei. The test is described as follows: Agarose gel of indexed, amplified libraries of transposed nuclear DNA (Example 6, FIG. 5). It counts as cell-based. The following applies: Pitstop-2 0, 10, 30, 60 μM. The procedure: Genomic DNA transposed with Nextera Tn5 Kit in the presence of Pitstop-2 (at concentrations of 0, 10, 30, and 60 μM) as described above was released from nuclei and was captured onto indexed beads containing oligonucleotide capture sequences. Bead-captured DNA was further gap-fill ligated to covalently link both strands of genomic DNA to common sequences (including unique indices) and amplified by PCR. […] Band intensity increases correlated with increases in Pitsthop-2 concentration. Corresponding DNA fragments covered by distinct number of nucleosomes of resulted libraries contained “nucleosomal banding,” indicating successful ATAC-seq tagmentation at regions free of nucleosomes.

Another test has as its system Mouse (3T3) nuclei. The test is described as follows: Single-cell ATAC-seq in droplets (Example 14, FIG. 11). The test is classed as cell-based. As to the method:
Mouse (3T3) nuclei were treated with 0 μM, 30 μM, and 60 μM Pitstop-2 during cell lysis and transposition of nuclei. Pitstop-2 was used to open up nuclear pores and to allow increased transposition of open chromatin. A defined number of transposed nuclei set to ensure single nuclei occupancy was loaded into a QX200 Bio-Rad droplet generator with indexed beads designed to produce single-cell ATAC-seq libraries. Single cell libraries were PCR-amplified in droplets and then subjected to purification, and sequencing on a NextSeq® 550 Sequencing System.
Treatment of nuclei with Pitstop-2 allows more efficient transposition and increased unique coverage of open chromatin. In the presence of Pitstop-2, transposases target additional open chromatin regions outside of transcription start sites (TSS) (see FIG. 11B). […] Also observed were an alignment of pooled ATAC-seq reads generated with 0 μM, 30 μM, and 60 μM Pitstop-2 around GAPDH gene at chromosome 6 and an alignment of pooled ATAC-seq reads generated with 0 μM, 30 μM, and 60 μM Pitstop-2 around RPL10 gene at chromosome X (data not shown).

For `CCCCCCCCCCCCOS(=O)(=O)[O-].[Na+]` [SDS, sodium dodecyl sulfate], the “DeltaCt (no reverse transcription vs reverse transcription; relative cDNA synthesis efficiency)” value with nuclei of K562 cells (Nuclei +0.1% SDS) turned out to be 2.47.

Take `O=C1N=C(NS(=O)(=O)c2cccc3ccccc23)SC1=Cc1ccc(Br)cc1` [Pitstop-2, N-[5-(4-bromobenzylidene)-4-oxo-4,5-dihydro-1,3-thiazol-2-yl]naphthalene-1-sulfonamide]: in the test on Isolated nuclei [1] (Pitstop-2 0 to 80 uM), the “library yield from intact nuclei vs untreated control” value is “increases library yield compared to the untreated control”. The “ΔCq-Pitstop-2 vs. Control” value in the test on Isolated nuclei [1] (Pitstop-2 5 uM vs 0.05% DMSO control) was −0.2; in the test on Isolated nuclei [1] (Pitstop-2 10 uM vs 0.10% DMSO control) it was −0.65; with Isolated nuclei [1] (Pitstop-2 20 uM vs 0.20% DMSO control) it was −1.48; in the test on Isolated nuclei [1] (Pitstop-2 40 uM vs 0.40% DMSO control) it was −1.26; in the test on Isolated nuclei [1] (Pitstop-2 80 uM vs 0.80% DMSO control), −2.06. Besides, the Cq-Pitstop-2 in the test with Isolated nuclei [1] (Pitstop-2 5 uM) turned out to be 19.91; with Isolated nuclei [1] (Pitstop-2 10 uM), 20.00; in the test with Isolated nuclei [1] (Pitstop-2 20 uM), 19.36; with Isolated nuclei [1] (Pitstop-2 40 uM) it was 19.94; with Isolated nuclei [1] (Pitstop-2 80 uM), 19.24. Moreover, the Cq in the test with Isolated nuclei [2] (Transposome Tn5, Pitstop 50 μM) amounted to 22.21; in the test on Isolated nuclei [2] (Transposome Tn5, Pitstop 100 μM) it was 23.17; in the test with Isolated nuclei [2] (Transposome Tn5, Pitstop 200 μM) it was 23.105; in the test with Isolated nuclei [2] (Transposome Tn5, Pitstop 300 μM) it was 23.67; in the test on Isolated nuclei [2] (Transposome TsTn5, Pitstop 50 μM), 18.32; with Isolated nuclei [2] (Transposome TsTn5, Pitstop 100 μM), 18.52. The Cq with Isolated nuclei [2] (Transposome TsTn5, Pitstop 200 μM) came to 18.55; with Isolated nuclei [2] (Transposome TsTn5, Pitstop 300 μM) it was 19.475. Also, the “Mean (MFU), bead capture” value in the test with nuclei [3] (Pitstop-2 10 μM) is on record as 1297 MFU; in the test on nuclei [3] (Pitstop-2 30 μM) it was 1439 MFU; in the test with nuclei [3] (Pitstop-2 60 μM), 1488 MFU. In addition, in the test on nuclei [3] (Pitstop-2 treatment vs control pools), the “bead capture rates of FAM-labeled transposed libraries” value was “enhanced bead capture rates over control pools”. The “Yield (nM) 150-1000 bp” value in the test with unpurified nuclei (Pitstop-2 5 μM) came to 7.3 nM; with unpurified nuclei (Pitstop-2 10 μM) it was 9.3 nM; in the test with unpurified nuclei (Pitstop-2 20 μM), 20.6 nM; in the test with unpurified nuclei (Pitstop-2 50 μM), 23.7 nM; in the test on unpurified nuclei (Pitstop-2 100 μM), 15.7 nM; with unpurified nuclei (Pitstop-2 200 μM), 8.7 nM. Also, in the test on unpurified nuclei (Pitstop-2 10 and 100 μM, FIG. 7A), the “yield of ATAC-seq library on BioAnalyzer” value is reported as “increased the yield of an ATAC-seq library”. In addition, the “boost of cDNA synthesis from nuclei over untreated nuclei” value with nuclei of K562 cells (30 μM Pitstop-2) is 4-5 fold. In addition, the “DeltaCt (no reverse transcription vs reverse transcription; relative cDNA synthesis efficiency)” value with nuclei of K562 cells (Nuclei +30 μM Pitstop-2) worked out at 7.19. For the same molecule, the “influx of FAM-labeled transposomes into nuclei” value in [4] is reported as “increased influx of FAM-labeled transposomes into the nuclear space”. Besides, the “ATAC-seq profile, normalized coverage over promoter and coding regions” value in test [5] (30 and 60 μM Pitstop-2, FIG. 4C) is “improved the ATAC-seq profile over controls”. In test [5] (Pitstop-2-treated samples over controls, FIG. 4B), the “diversity and uniqueness of whole genome sequencing coverage” value was “better diversity and uniqueness”. Also, the “access to chromatin regions (sequenced libraries)” value in test [5] (Pitstop-2 treatment) was “enhanced access to transposase-accessible intergenic and open chromatin regions”. Also, in the test on nuclei [6], the “transposition yield by agarose gel electrophoresis” value is reported as “clear increase in transposition yield”. In addition, the “ATAC-seq peak overlap (MACS-2), integrity of the assay” value with Mouse (3T3) nuclei (0, 30, 60 μM Pitstop-2, FIG. 11C) is “did not change the overall integrity of the assay”. Moreover, in the test with Mouse (3T3) nuclei (increasing Pitstop-2 (0, 30, 60 μM), barcodes >1 k, >10 k, >100 k unique reads, FIG. 11A), the “total number of unique reads” value is on record as “increase in the total number of unique reads”.
